Results published in US11708367B2, “Compounds for the treatment of kinase-dependent disorders” (Exelixis, Inc., priority 2018, dated 2023).

Key:
[1] = target: Met (Homo sapiens (Human), UniProt P08581); assay: Human Met kinase assay (33P radiometric, KinaseProfiler); assay type: biochemical; settings: 10 μM ATP, read-out: c-Met IC50
Procedure: Kinase activity and compound inhibition were investigated using the ^33P-Phosphoryl transfer radiometric kinase assay, performed using the KinaseProfiler™ service of Eurofins Pharma Discovery Services UK Limited. Dose-response experiments were performed using nine compound concentrations in a 96-well microtiter plate. For each assay, all compounds were prepared to a 50× final assay concentration (50 μM) in 100% DMSO, then diluted in a half-log series, with the final top concentration at 1 μM. This working stock of the compound was added to the assay well as the first component in the reaction, followed by the remaining components as detailed in the following assay protocols below. The positive control wells (100% kinase activity) contain all components of the reaction including 2% DMSO (control for solvent effects), except the compound of interest. Blank wells contain all components of the reaction, with the reference inhibitor, staurosporine. This reference compound was used to abolish kinase activity and generated the 0% kinase activity base-line. IC50 values were calculated by nonlinear regression analysis using the sigmoidal dose-response (variable slope) curve fit on XLFit version 5.3 (ID Business Solutions).
Human Met (residues R974-S1390 with A1209G and V1290L, 3.4 nM) was incubated with 8 mM MOPS pH 7.0, 0.2 mM EDTA, 250 µM KKKGQEEEYVFIE (SEQ ID NO. 45), 1 mM sodium orthovanadate, 5 mM […], 10 mM magnesium acetate, and 10 μM [γ-33P-ATP]. The reaction was initiated by the addition of the Mg/ATP mix. After incubation for 40 minutes at room temperature, the reaction was stopped by the addition of phosphoric acid to a concentration of 0.5%. A reaction aliquot of 10 μL was then spotted onto a P30 filtermat and washed four times for 4 minutes in 0.425% phosphoric acid and once in methanol prior to drying and scintillation counting. Incorporated 33P was measured using the Wallac Microbeta scintillation counter (Perkin Elmer).

[2] = target: Mer (Homo sapiens (Human), UniProt Q12866); assay: Mer autophosphorylation ELISA in transient transfected 293A cells; assay type: cell-based; settings: cellular, MERTK-transfected 293A cells, phospho-Mer ELISA
Procedure: 293A cells (Thermo Fisher #R70507) were seeded at 1.5×10^6 cells/well onto 100 mm dish (Greiner #664169), in DMEM (Thermo Fisher #11995-040) containing 10% FBS (Thermo Fisher #26140-079), 1% MEM NEAA (Thermo Fisher #11140-050), 1% GlutaMax (Thermo Fisher #35050-061), and 1% Penicillin Streptomycin (Thermo Fisher #15140-122). 293A cells were incubated at 37° C., 5% CO2 for 24 h and then transfected with 6 μg MERTK DNA (Genecopoeia #EX-Z8208-M02) using TransIT LT1 transfection reagent (Mirus-Bio #MIR2305). After 24 h incubation, the transfected 293A cells were seeded at 1×10^5 cells/well onto 96-well plates (Corning #3904) in DMEM growth medium overnight. Test compounds were serially diluted to produce an 8-point dose curve in fresh serum-free medium to a final concentration of 0.3% DMSO (vehicle) and added to the cells and incubated for 1 h. Cells were then immediately lysed with 150 μL of cold IX lysis buffer [20 mM Tris, 137 mM sodium chloride, 2 mM EDTA, 10% glycerol, 1% NP-40 alternative, 1 mM activated sodium orthovanadate, 1 mM PefaBloc SC (Sigma-Aldrich #11429868001), protease/phosphatase inhibitor tablet (Thermo Fisher #A32959)]. Lysates were clarified by centrifugation and 50 μL/well added into the human phospho-Mer DuoSet IC ELISA (R&D Systems #DYC2579-2). Assay was performed according to manufacturer's instructions and sample phospho-Mer concentrations were extrapolated using human phospho-Mer control (R&D Systems #841793) as a standard. Positive control wells (100% activity) contained DMSO-treated cell lysates. Negative control wells (0% activity) contained reference inhibitor-treated cell lysates. IC50 values were calculated by nonlinear regression analysis using a 4-parameter logistic curve fit in ActivityBase XE (IDBS).

[3] = target: KDR (Homo sapiens (Human), UniProt P35968); assay: KDR autophosphorylation ELISA in HUVEC cells; assay type: cell-based; settings: cellular, VEGF165-stimulated, phospho-KDR ELISA
Procedure, shortened: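 Serum-starved (24 h) HUVECs were pre-treated with compound (8-point dose curve, 0.3% DMSO final) for 1 h, then stimulated with 100 ng/mL human VEGF165 for 5 min. Lysate phospho-KDR was quantified by ELISA against a phospho-KDR standard. IC50 came from a 4-parameter logistic fit, normalized to stimulated-DMSO (100%) and unstimulated (0%) controls.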

Sequence of Mer (Q12866 21-999): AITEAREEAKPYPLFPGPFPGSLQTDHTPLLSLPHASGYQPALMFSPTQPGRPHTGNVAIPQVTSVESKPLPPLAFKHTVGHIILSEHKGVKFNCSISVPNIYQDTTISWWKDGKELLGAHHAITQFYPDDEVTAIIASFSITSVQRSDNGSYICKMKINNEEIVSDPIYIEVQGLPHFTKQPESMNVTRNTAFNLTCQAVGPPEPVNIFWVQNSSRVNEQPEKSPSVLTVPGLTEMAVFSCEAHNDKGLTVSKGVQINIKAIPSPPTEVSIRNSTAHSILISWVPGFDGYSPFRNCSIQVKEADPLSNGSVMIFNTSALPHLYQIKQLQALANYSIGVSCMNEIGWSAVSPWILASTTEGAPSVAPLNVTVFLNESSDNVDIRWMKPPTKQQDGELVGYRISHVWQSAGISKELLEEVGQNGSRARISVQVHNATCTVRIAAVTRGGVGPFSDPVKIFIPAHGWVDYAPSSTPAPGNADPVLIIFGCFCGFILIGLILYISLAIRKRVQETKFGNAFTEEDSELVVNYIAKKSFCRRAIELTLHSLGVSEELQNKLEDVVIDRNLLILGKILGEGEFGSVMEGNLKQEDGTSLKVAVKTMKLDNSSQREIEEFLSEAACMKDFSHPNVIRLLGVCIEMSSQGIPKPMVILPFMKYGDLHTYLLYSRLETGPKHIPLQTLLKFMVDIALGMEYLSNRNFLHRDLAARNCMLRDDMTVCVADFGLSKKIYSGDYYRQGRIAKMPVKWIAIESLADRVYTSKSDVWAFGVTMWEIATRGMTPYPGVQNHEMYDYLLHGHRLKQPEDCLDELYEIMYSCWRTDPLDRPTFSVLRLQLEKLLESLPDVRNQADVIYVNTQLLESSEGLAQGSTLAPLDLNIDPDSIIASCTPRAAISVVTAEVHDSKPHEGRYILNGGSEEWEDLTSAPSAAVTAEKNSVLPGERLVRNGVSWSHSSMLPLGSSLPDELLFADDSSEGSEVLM
Sequence of KDR (P35968 20-1356): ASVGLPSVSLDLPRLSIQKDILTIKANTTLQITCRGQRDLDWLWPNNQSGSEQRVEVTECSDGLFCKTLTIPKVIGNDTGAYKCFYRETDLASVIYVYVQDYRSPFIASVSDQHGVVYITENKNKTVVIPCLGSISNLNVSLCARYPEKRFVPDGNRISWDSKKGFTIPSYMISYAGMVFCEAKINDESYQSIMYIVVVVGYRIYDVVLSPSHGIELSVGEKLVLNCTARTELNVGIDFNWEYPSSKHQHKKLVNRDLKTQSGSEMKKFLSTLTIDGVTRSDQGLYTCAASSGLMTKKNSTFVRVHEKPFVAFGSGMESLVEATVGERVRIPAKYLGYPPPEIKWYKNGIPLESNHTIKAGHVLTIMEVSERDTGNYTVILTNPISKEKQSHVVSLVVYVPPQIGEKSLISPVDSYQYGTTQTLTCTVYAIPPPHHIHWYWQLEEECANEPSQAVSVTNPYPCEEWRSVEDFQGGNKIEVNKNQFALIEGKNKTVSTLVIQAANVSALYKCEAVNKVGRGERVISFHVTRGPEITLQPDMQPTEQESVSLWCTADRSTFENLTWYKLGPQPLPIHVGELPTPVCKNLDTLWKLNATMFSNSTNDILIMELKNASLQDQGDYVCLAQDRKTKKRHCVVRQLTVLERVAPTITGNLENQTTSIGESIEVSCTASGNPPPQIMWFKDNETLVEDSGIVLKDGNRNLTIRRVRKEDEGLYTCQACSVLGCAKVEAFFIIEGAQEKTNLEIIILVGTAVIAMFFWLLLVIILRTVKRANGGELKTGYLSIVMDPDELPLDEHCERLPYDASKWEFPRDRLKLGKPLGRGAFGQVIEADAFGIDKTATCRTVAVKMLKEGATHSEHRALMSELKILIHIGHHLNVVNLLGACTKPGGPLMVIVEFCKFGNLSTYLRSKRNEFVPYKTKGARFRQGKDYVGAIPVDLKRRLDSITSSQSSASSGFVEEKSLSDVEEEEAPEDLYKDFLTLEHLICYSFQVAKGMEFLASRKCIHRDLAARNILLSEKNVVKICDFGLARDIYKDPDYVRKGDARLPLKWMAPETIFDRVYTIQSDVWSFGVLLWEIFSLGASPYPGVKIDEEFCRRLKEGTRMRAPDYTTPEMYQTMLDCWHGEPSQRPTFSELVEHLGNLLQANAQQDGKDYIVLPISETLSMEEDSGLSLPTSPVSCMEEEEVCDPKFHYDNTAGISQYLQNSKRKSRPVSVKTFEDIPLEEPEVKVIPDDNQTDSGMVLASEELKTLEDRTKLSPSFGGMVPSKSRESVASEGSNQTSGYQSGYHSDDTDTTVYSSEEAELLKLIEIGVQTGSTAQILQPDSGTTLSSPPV

Row | IC50 [1] [µM] | IC50 [2] [µM] | IC50 [3] [µM] | Compound
1 | 0.01 to 0.1 | 0.01 to 0.1 | 0.01 to 0.1 | COc1cc2ncnc(Oc3ccc(NC(=O)C4(C(=O)Nc5ccc(F)cc5)CC4)cc3)c2nc1OC [Compound 28, 1-N-[4-(6,7-dimethoxy-pyrido[3,2-d]pyrimidin-4-yl)oxyphenyl]-1-N′-(4-fluorophenyl)cyclo-propane-1,1-dicarboxamide]
2 | 0.01 to 0.1 |  | 0.01 to 0.1 | COc1cc2ncnc(Oc3ccc(NC(=O)C4(C(=O)Nc5ccc(F)cc5)CC4)cc3)c2cc1C(N)=O [Compound 117, 1-N-[4-(6-carbamoyl-7-methoxyquinazolin-4-yl)oxyphenyl]-1-N′-(4-fluorophenyl)cyclopropane-1,1-dicarboxamide]
3 | 0.01 to 0.1 |  | > 0.3 | COc1cc2ncnc(Oc3ccc(NC(=O)C4(C(=O)Nc5ccc(F)cc5)CC4)cc3)c2cc1C(=O)NC[C@@H]1CCCN1 [Compound 122, 1-N′-(4-fluorophenyl)-1-N-[4-[7-methoxy-6-[[(2S)-pyrrolidin-2-yl]methyl-carbamoyl]quinazolin-4-yl]oxyphenyl]cyclopropane-1,1-dicarboxamide]
4 | ≤ 0.01 | ≤ 0.01 | ≤ 0.01 | COc1cc2nccc(Oc3ccc(NC(=O)C4(C(=O)Nc5ccc(F)cc5)CC4)cc3F)c2nc1OC [Compound 140, 1-N′-[4-[(6,7-dimethoxy-1,5-naphthyridin-4-yl)oxy]-3-fluorophenyl]-1-N-(4-fluorophenyl)cyclopropane-1,1-dicarboxamide]
5 | 0.01 to 0.1 | 0.01 to 0.1 | ≤ 0.01 | COc1nc2c(Oc3ccc(NC(=O)C4(C(=O)Nc5ccc(F)cc5)CC4)cc3)ncnc2cc1OCCCN1CCOCC1 [Compound 65, 1-N′-(4-fluorophenyl)-1-N-[4-[6-methoxy-7-(3-morpholin-4-ylpropoxy)pyrido[3,2-d]pyrimidin-4-yl]oxyphenyl]cyclopropane-1,1-dicarboxamide]
6 | 0.01 to 0.1 |  | > 0.3 | COc1cc2ncnc(Oc3ccc(NC(=O)C4(C(=O)Nc5ccc(F)cc5)CC4)cc3)c2cn1 [Compound 104, 1-N′-(4-fluorophenyl)-1-N-[4-(7-methoxypyrido[4,3-d]pyrimidin-4-yl)oxy-phenyl]cyclopropane-1,1-dicarboxamide]
7 | ≤ 0.01 | ≤ 0.01 | ≤ 0.01 | COc1nc2c(Oc3ccc(NC(=O)C4(C(=O)Nc5ccc(F)cc5)CC4)cc3F)ncnc2cc1OCCCN1CCOCC1 [Compound 67, 1-N′-[3-fluoro-4-[6-methoxy-7-(3-morpholin-4-ylpropoxy)pyrido[3,2-d]pyrimidin-4-yl]oxyphenyl]-1-N-(4-fluorophenyl)cyclo-propane-1,1-dicarboxamide]
8 | ≤ 0.01 | ≤ 0.01 | ≤ 0.01 | COc1cc2ncnc(Oc3ccc(NC(=O)C4(C(=O)Nc5ccc(F)cc5)CC4)cc3F)c2nc1OC [Compound 30, 1-N′-[4-(6,7-dimethoxypyrido[3,2-d]pyrimidin-4-yl)oxy-3-fluorophenyl]-1-N-(4-fluorophenyl)cyclopropane-1,1-dicarboxamide]
9 | 0.1 to 1 |  | 0.1 to 0.3 | COc1cc2ncnc(Oc3ccc(NC(=O)C4(C(=O)Nc5ccc(F)cc5)CC4)cc3)c2cc1C(=O)NC[C@@H]1CCCN1C(=O)OC(C)(C)C [Compound 120, tert-butyl (2S)-2-[[[4-[4-[[1-[(4-fluoro-phenyl)carbamoyl]cyclo-propane-carbonyl]amino]phenoxy]-7-methoxyquinazoline-6-carbonyl]amino]methyl]pyr-rolidine-1-carboxylate]
10 | 0.1 to 1 |  | > 0.3 | COc1cc2c(Oc3ccc(NC(=O)C4(C(=O)Nc5ccc(F)cc5)CC4)cc3)ncnc2cn1 [Compound 91, 1-N′-(4-fluorophenyl)-1-N-[4-(6-methoxypyrido[3,4-d]pyrimidin-4-yl)oxyphenyl]cyclopropane-1,1-dicarboxamide]
11 | 0.1 to 1 |  | 0.01 to 0.1 | COc1cc2ncnc(Oc3ccc(NC(=O)C4(C(=O)Nc5ccc(F)cc5)CC4)cc3)c2cc1C(=O)NC[C@H]1CCCN1C(=O)OC(C)(C)C [Compound 119, tert-butyl (2R)-2-[[[4-[4-[[1-[(4-fluoro-phenyl)carbamoyl]cyclo-propane-carbonyl]amino]phenoxy]-7-methoxyquinazoline-6-carbonyl]amino]methyl]pyr-rolidine-1-carboxylate]
12 | 0.01 to 0.1 |  | 0.01 to 0.1 | COc1cc2ncnc(Oc3ccc(NC(=O)C4(C(=O)Nc5ccc(F)cc5)CC4)cc3)c2cc1C(=O)NC1COC1 [Compound 115, 1-N′-(4-fluorophenyl)-1-N-[4-[7-methoxy-6-(oxetan-3-ylcarbamoyl)quinazolin-4-yl]oxyphenyl]cyclopropane-1,1-dicarboxamide]
13 | ≤ 0.01 |  | ≤ 0.01 | COc1nc2c(Oc3ccc(NC(=O)C4(C(=O)Nc5ccc(F)cc5)CC4)cc3Cl)ncnc2cc1OCCCN1CCOCC1 [Compound 66, 1-N′-[3-chloro-4-[6-methoxy-7-(3-morpholin-4-ylpropoxy)pyrido[3,2-d]pyrimidin-4-yl]oxyphenyl]-1-N-(4-fluorophenyl)cyclo-propane-1,1-dicarboxamide]
14 | ≤ 0.01 | ≤ 0.01 | ≤ 0.01 | COc1cc2nccc(Oc3ccc(NC(=O)C4(C(=O)Nc5ccc(F)cc5)CC4)cc3)c2nc1OC [Compound 139, 1-N-[4-[(6,7-dimethoxy-1,5-naphthyridin-4-yl)oxy]phenyl]-1-N′-(4-fluorophenyl)cyclo-propane-1,1-dicarboxamide]
15 | ≤ 0.01 |  | 0.1 to 0.3 | COc1cc2ncnc(Oc3ccc(NC(=O)C4(C(=O)Nc5ccc(F)cc5)CC4)cc3)c2cc1C(=O)NC[C@H]1CCCN1 [Compound 121, 1-N′-(4-fluorophenyl)-1-N-[4-[7-methoxy-6-[[(2R)-pyrrolidin-2-yl]methyl-carbamoyl]quinazolin-4-yl]oxyphenyl]cyclopropane-1,1-dicarboxamide]
16 | 0.01 to 0.1 |  | 0.01 to 0.1 | COc1cc2ncnc(Oc3ccc(NC(=O)C4(C(=O)Nc5ccc(F)cc5)CC4)cc3)c2cc1C(=O)NC1CC1 [Compound 116, 1-N-[4-[6-(cyclopropylcarbamoyl)-7-methoxyquinazolin-4-yl]oxyphenyl]-1-N′-(4-fluorophenyl)cyclopropane-1,1-dicarboxamide]
17 | ≤ 0.01 |  | ≤ 0.01 | COc1cc2nccc(Oc3ccc(NC(=O)C4(C(=O)Nc5ccc(F)cc5)CC4)cc3Cl)c2nc1OC [Compound 141, 1-N′-[3-chloro-4-[(6,7-dimethoxy-1,5-naphthyridin-4-yl)oxy]phenyl]-1-N-(4-fluorophenyl)cyclo-propane-1,1-dicarboxamide]
18 | ≤ 0.01 |  | ≤ 0.01 | COc1cc2ncnc(Oc3ccc(NC(=O)C4(C(=O)Nc5ccc(F)cc5)CC4)cc3Cl)c2nc1OC [Compound 29, 1-N′-[3-chloro-4-(6,7-dimethoxypyrido[3,2-d]pyrimidin-4-yl)oxyphenyl]-1-N-(4-fluorophenyl)cyclo-propane-1,1-dicarboxamide]
